# Experimental data: ChEMBL document CHEMBL1201862, “PubChem BioAssay data set” (2004)
# Active and inactive are the calls of the source.
# Legend:
# Estrogen receptor = biological target: T1, Estrogen receptor (Homo sapiens, UniProt P03372); experiment: ERα–SRC-3 coactivator interaction inhibitors, confirmation, orthogonal assay, biochemical, ELISA, streptavidin-HRP readout (AID 1079)
# T1 sequence (P03372 whole entry): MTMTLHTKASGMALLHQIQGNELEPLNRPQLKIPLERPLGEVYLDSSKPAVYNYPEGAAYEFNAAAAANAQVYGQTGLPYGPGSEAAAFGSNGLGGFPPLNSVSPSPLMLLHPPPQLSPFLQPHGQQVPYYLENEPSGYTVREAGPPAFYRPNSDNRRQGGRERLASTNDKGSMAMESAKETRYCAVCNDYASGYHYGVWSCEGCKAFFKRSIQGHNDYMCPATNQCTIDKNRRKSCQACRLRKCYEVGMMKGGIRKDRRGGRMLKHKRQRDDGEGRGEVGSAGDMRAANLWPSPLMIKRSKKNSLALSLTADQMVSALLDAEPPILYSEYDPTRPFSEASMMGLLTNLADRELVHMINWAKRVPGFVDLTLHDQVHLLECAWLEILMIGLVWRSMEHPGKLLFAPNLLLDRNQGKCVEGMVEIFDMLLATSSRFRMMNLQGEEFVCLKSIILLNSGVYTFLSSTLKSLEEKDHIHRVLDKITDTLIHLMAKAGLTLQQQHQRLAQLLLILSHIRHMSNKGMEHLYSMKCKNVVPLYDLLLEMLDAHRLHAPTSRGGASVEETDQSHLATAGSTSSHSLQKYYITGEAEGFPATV
# [1] = Luminescence Cell-Based Dose Response to Identify Activators of Luciferase Translation or Activity in H4-C Neuroglioblastoma Cells. [Related pubchem assays: 1829 (Project Summary), 1814 (Primary HTS)]; format: functional
# INS1 = experiment: beta cell apoptosis inhibitors, cytokine rescue, dose response, luminescence, retest (AID 449756); format: functional, cell-based; conditions: Rattus norvegicus, INS1;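 further: cell death triggered by IL-1 beta plus TNF-alpha plus IFN-gamma mixture; protective hits raise ATP signal compared with cytokine alone wells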
# [2] = cytotoxicity toward NIH3T3 fibroblasts, dose response, counter-screen, cell-based, ATP luminescence, mouse fibroblasts (AID 2010); format: functional;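 further: cells exposed to compound for about 90 hours before reading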
# Streptococcus = experiment: Group A Streptococcus viability loss, dose response, counter-screen for streptokinase expression inhibitor project, luminescence, BacTiterGlo (AID 1915); format: functional, organism-based;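 further: potency for reduction of bacterial viability or growth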
# [3] = Luminescence Cell-Based Dose Confirmation HTS to Identify Activators of 5'UTR Stem-Loop Driven Alpha-Synuclein mRNA Translation in H4 Neuroglioblastoma Cells. [Related pubchem assays: 1829 (Project Summary), 1814 (Primary HTS)]; format: functional
# [4] = Luminescence Cell-Based Dose Response HTS to Identify Activators of Luciferase Translation or Activity in H4 […] Cells. [Related pubchem assays: 1829 (Project Summary), 1814 (Primary HTS)]; format: functional
# [5] = Luminescence Cell-Based Dose Response to Identify Activators of 5'UTR Stem-Loop Driven Prion Protein mRNA Translation in H4-C Neuroglioblastoma Cells. [Related pubchem assays: 1829 (Project Summary), 1814 (Primary HTS)]; format: functional
# [6] = test system: Streptococcus sp. 'group A'; experiment: growth inhibition of control SK(-) GAS strain, dose response, counter-screen for streptokinase expression inhibitor project, luminescence, kanamycin, BacTiterGlo, confirmation (AID 1900); format: functional, organism-based
# [7] = inhibitors of intracellular T. cruzi replication, confirmation, NIH3T3 host cells, beta-gal luminescence (AID 2044); format: functional, cell-based;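 further: intracellular parasites grown in NIH/3T3 mouse fibroblasts as host cells; luminescent beta-galactosidase reporter signal from transgenic T. cruzi replicating inside host cells; inhibitors lower the luminescence signal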
# NS3 = NS3 (Hepatitis C virus, UniProt A3EZJ3); experiment: PubChem AID 2173; design: species or system Hepacivirus hominis
# NS3, sequence (A3EZJ3 whole entry): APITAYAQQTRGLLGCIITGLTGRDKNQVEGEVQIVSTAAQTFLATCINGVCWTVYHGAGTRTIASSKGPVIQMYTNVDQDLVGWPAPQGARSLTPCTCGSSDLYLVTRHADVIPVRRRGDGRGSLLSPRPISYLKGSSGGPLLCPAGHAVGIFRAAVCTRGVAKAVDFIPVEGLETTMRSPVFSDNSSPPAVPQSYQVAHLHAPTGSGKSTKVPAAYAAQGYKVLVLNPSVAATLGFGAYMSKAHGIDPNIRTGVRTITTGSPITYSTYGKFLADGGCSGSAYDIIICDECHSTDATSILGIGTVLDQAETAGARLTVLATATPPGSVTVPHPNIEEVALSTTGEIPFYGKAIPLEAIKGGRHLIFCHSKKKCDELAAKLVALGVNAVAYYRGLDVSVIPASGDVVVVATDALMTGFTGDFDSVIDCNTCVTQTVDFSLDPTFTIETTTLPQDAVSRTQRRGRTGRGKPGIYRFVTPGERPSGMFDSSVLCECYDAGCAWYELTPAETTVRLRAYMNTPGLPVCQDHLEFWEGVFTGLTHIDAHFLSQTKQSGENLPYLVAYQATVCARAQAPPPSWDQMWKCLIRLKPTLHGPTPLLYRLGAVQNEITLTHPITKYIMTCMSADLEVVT
# [8] = Luminescence Cell-Based Dose Confirmation to Identify Activators of 5'UTR Stem-Loop Driven Alpha-Synuclein mRNA Translation in H4 Neuroglioblastoma Cells. [Related pubchem assays: 1829 (Project Summary), 1814 (Primary HTS)]; format: functional
# H4 = experiment: Luminescence Cell-Based Dose Response HTS to Identify Activators of 5'UTR Stem-Loop Driven Prion Protein mRNA Translation in H4 Neuroglioblastoma Cells. [Related pubchem assays: 1829 (Project Summary), 1814 (Primary HTS)]; format: functional; conditions: Homo sapiens
# Streptokinase A = biological target: T2, Streptokinase A (Streptococcus pyogenes serotype M1, UniProt P10520); experiment: S. pyogenes streptokinase expression inhibitors, potency, dose response, plasminogen activation absorbance, OD405 (AID 1914); format: functional, Streptococcus pyogenes M1 GAS;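 further: secreted streptokinase activity via plasminogen activation per viability signal from cell pellet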
# T2 sequence (P10520 whole entry): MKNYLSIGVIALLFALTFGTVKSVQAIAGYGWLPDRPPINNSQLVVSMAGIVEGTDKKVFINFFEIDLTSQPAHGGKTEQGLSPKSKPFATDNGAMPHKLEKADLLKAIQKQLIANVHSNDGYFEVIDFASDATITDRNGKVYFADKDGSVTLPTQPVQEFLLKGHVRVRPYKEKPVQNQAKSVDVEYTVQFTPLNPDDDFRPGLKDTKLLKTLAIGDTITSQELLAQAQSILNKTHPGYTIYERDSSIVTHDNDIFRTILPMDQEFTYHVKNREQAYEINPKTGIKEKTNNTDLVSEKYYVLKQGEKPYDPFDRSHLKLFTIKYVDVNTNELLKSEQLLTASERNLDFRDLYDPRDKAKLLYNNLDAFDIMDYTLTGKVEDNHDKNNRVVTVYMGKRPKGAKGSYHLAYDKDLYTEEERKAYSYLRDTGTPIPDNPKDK
# HEK293 [9] = experiment: cells; conditions: Homo sapiens
# [10] = control 3'UTR Renilla luciferase suppression, dose response, counter-screen for Shn3 inhibitor project, cell-based, Clone20-Shn3RL, cherry-picked (AID 624133); format: functional
# [11] = Shn3 3'UTR reporter inhibitors, dose response, cell-based, Clone20 osteoblasts, firefly luciferase, cherry-picked (AID 624132); format: functional;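 further: firefly luciferase luminescence from reporter carrying the Shn3 3'UTR in osteoblasts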
# [12] = HepG2 cell cytotoxicity, dose response, cytotoxicity control for Shn3 inhibitor project, CellTiter-Glo, cherry-picked (AID 624134); format: functional, cell-based
# [13] = biological target: T3, Microphthalmia-associated transcription factor (Homo sapiens, UniProt O75030); experiment: TRPM1 promoter luciferase signal decrease, dose response, MITF inhibitor project, cell-based, SK-MEL-5, cherry-picked, set 3 (AID 493073); format: functional
# T3 sequence (O75030 whole entry): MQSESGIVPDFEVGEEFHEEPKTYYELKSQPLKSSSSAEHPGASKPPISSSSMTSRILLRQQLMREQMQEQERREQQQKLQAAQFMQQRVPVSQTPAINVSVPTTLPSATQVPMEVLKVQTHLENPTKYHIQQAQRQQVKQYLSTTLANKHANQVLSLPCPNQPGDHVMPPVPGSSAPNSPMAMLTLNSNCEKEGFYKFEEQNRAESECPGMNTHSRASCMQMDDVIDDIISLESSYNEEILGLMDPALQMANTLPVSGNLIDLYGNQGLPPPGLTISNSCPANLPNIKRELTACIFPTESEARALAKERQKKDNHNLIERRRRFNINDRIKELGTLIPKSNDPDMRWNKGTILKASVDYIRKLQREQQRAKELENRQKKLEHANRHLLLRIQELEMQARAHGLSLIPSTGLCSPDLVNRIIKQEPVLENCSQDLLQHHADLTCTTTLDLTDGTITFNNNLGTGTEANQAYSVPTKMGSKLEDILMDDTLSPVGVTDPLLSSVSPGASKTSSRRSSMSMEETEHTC
# HeLa = experiment: Cytotoxicity counterscreen assay for transcriptional activators of heat shock protein 70 (Hsp70). [Related pubchem assays: 1203, 1252 ]; format: functional; conditions: Homo sapiens;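 further: cells exposed to compound for 16 hours before readout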
# HEK293 [14] = experiment: cells; conditions: Homo sapiens; remark: listed apart in the source
# [15] = Luminescence Cell-Based Dose Confirmation HTS to Identify Inhibitors of Platelet Dense Granule Release. [Related pubchem assays: 1663 (Primary HTS), 1678 (Summary of Project)]; format: functional
# Galanin receptor type 3 = Galanin receptor type 3 (Homo sapiens, UniProt O60755); experiment: Fluorescence-based cell-based primary high throughput dose response assay to identify antagonists of the Galanin Receptor 3 (GalR3).; format: functional
# Galanin receptor type 3, sequence (O60755 whole entry): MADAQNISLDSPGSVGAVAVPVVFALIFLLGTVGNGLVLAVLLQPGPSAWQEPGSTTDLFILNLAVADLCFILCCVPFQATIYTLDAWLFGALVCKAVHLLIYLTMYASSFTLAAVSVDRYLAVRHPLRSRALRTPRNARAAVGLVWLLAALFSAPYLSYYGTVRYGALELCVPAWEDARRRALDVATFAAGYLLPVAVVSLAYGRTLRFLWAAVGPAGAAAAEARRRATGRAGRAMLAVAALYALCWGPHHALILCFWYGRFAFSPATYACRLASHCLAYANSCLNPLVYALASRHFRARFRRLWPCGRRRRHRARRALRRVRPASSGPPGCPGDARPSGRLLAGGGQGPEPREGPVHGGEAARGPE
# [16] = biological target: Luciferin 4-monooxygenase (Photinus pyralis, UniProt P08659); experiment: firefly luciferase enzyme inhibitors, dose response, biochemical, luminescence (AID 1891)
# Luciferin 4-monooxygenase, sequence (P08659 whole entry): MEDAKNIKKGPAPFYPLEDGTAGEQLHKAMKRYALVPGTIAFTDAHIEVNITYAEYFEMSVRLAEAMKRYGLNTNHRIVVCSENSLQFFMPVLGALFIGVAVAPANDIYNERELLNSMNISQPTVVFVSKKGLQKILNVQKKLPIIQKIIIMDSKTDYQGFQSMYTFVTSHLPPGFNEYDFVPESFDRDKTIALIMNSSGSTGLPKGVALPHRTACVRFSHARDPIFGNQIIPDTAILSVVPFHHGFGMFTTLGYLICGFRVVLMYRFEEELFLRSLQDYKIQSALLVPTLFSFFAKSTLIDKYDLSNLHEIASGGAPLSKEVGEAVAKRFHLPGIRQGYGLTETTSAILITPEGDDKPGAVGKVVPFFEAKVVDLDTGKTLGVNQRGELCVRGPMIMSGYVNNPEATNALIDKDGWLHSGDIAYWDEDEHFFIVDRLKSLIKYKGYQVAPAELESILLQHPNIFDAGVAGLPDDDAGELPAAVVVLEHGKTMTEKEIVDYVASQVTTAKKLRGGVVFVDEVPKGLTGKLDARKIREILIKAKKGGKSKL
# cells = format: functional, cell-based; conditions: HEK-CNG
# [17] = biological target: Neuropeptide Y receptor type 2 (Homo sapiens, UniProt P49146); experiment: Fluorescence-based cell-based high-throughput dose response assay for agonists of NPY-Y2. [Related pubchem assays: 1703 (Screening assay (CNGC inhibitors).), 1359 (Screening assay (NPY-Y2 potentiators or agonists).), 1304 (Screening assay (NPY-Y1 potentiators or agonists).), 1710 (Screening assay (NPY-Y2 agonists).), 1791 (Summary AID.)]; format: functional
# Neuropeptide Y receptor type 2, sequence (P49146 whole entry): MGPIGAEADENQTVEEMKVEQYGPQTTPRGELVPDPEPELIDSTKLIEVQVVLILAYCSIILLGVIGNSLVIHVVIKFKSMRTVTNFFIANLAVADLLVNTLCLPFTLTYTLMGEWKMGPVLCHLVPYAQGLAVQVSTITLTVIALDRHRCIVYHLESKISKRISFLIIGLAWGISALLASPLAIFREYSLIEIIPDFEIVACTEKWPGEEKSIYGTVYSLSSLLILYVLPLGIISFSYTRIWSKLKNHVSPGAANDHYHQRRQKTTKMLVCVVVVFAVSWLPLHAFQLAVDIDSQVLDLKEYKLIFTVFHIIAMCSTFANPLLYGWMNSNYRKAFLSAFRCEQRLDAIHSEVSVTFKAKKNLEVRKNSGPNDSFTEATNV
# HEK293 [18] = experiment: Fluorescence-based counterscreen for potentiators or agonists of NPY-Y2: cell-based high-throughput dose response assay to identify inhibitors of cyclic nucleotide gated ion channel (CNGC) activity. In this assay, the parental HEK293 cell line transfected with a cyclic-nucleotide gated ion channel (CNGC)-based cAMP sensor is used to measure inhibition of isoproterenol-induced CNGC activity by test compound.; format: functional; conditions: Homo sapiens
# [19] = biological target: Neuropeptide Y receptor type 1 (Homo sapiens, UniProt P25929); experiment: Fluorescence-based counterscreen for agonists of NPY-Y2: cell-based high-throughput dose response assay for agonists of NPY-Y1.; format: functional
# Neuropeptide Y receptor type 1, sequence (P25929 whole entry): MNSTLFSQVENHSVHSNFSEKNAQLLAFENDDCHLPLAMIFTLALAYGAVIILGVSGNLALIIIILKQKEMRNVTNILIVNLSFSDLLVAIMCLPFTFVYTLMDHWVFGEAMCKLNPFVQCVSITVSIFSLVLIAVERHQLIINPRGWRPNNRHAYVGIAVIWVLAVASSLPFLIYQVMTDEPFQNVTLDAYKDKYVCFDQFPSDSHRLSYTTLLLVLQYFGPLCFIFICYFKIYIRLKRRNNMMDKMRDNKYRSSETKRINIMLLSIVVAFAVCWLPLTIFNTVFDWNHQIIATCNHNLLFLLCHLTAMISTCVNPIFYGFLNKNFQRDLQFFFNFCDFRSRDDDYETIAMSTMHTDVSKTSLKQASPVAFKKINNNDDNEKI
# Insulin-degrading enzyme = Insulin-degrading enzyme (Homo sapiens, UniProt P14735); experiment: Dose Response: Fluorescence polarization-based cell-based high throughput dose response assay for inhibitors of insulin-degrading enzyme (IDE). [Related pubchem assays: 434962 (Primary screen (IDE inhibitors in singlicate)), 449730 (Counterscreen (Cytotoxicity in triplicate)), 435028 (Confirmation (IDE inhibitors in triplicate)), 434984 (Summary …; format: functional
# Insulin-degrading enzyme, sequence (P14735 whole entry): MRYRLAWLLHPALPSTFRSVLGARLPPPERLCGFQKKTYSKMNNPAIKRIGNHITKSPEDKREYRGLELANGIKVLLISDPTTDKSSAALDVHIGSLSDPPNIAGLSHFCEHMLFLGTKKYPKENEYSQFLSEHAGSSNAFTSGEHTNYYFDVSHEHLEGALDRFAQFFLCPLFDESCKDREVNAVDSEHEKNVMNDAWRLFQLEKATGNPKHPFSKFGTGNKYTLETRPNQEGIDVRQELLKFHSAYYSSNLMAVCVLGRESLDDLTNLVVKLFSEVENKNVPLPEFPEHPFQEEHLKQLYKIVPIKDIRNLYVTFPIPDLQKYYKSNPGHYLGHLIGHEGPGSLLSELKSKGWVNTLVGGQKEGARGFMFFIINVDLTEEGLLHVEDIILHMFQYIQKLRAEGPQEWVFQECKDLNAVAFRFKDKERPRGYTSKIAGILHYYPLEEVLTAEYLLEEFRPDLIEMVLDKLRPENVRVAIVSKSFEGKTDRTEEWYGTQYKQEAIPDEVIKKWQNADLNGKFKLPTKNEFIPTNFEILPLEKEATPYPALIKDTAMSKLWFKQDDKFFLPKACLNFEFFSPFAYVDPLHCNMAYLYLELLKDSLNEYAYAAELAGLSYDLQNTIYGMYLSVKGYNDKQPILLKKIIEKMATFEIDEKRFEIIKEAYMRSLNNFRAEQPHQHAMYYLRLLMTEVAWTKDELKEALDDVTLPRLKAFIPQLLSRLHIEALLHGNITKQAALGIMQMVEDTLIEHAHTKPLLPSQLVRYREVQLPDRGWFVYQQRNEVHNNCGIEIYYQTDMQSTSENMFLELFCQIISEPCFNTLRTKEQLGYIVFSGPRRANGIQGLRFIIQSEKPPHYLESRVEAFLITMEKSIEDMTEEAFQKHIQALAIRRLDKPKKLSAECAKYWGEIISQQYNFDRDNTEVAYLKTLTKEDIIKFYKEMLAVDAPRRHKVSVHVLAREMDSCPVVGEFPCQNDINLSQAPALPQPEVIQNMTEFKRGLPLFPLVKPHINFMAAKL
# Genome polyprotein = Genome polyprotein (Hepatitis C virus, UniProt Q2Q167); experiment: HCV core protein dimerization inhibitors, dose response, biochemical, TR-FRET (AID 2159); design: species or system Hepacivirus hominis;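 further: blocks dimerization of HCV core protein measured by TR-FRET between tagged core106 pairs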
# Genome polyprotein, sequence (Q2Q167 whole entry): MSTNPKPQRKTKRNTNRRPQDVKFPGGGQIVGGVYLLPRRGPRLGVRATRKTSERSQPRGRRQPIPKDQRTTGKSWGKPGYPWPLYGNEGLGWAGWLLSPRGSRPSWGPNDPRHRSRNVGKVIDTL
# [20] = Counterscreen for IDE inhibitors: Luminescence-based cell-based high throughput dose response assay to identify compounds that are cytotoxic to HEK cells. [Related pubchem assays: 434962 (Primary screen (IDE inhibitors in singlicate)), 449730 (Counterscreen (Cytotoxicity in triplicate)), 435028 (Confirmation (IDE inhibitors in triplicate)) …; format: functional; conditions: HEK293
# [21] = biological target: Induced myeloid leukemia cell differentiation protein Mcl-1 (Homo sapiens, UniProt Q07820); format: functional
# Induced myeloid leukemia cell differentiation protein Mcl-1, sequence (Q07820 whole entry): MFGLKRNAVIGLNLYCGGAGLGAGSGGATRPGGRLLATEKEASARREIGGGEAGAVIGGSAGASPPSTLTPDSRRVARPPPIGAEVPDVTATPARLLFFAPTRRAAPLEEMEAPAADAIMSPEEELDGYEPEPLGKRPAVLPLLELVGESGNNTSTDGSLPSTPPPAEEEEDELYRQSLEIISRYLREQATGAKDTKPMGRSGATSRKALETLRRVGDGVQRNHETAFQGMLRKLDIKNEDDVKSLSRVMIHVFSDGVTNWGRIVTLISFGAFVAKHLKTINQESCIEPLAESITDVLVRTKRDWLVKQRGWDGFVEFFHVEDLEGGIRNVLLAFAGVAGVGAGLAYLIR
# [22] = biological target: T4, Small ubiquitin-related modifier 1 (Homo sapiens, UniProt P63165); experiment: inhibitors of SUMO1 peptide binding, dose response, biochemical, fluorescence polarization, uHTS hits (AID 624382); format: functional; conditions: read-out: IC50_Mean
# T4 sequence (P63165 whole entry): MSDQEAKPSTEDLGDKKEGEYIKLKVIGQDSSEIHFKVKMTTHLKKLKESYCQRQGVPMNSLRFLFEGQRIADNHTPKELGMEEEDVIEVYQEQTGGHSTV
# [23] = biological target: T4, Small ubiquitin-related modifier 1; experiment: inhibitors of SUMO1 partner interactions, dose response, biochemical, FRET (AID 624383); format: functional; conditions: read-out: IC50_Mean
smiles,measurement,setting,value
O=C(CCCCCn1c(=S)[nH]c2ccccc2c1=O)N1CCN(c2ccncc2)CC1,IC50,Estrogen receptor,0.03 µM (not active)
NC(=S)N/N=C/c1ccc(C23CC4CC(CC(C4)C2)C3)cc1,EC50,[1],0.415 µM (active)
same,AC50,INS1,5.3 µM (active)
same,EC50,[2],7.3 µM (active)
same,EC50,Streptococcus,> 50 µM (not active)
same,EC50,[3],< 0.1 µM (active)
same,EC50,[4],< 0.1 µM (active)
same,EC50,[5],1.31 µM (active)
same,EC50,[6],2.4 µM (active)
same,EC50,[7],0.387 µM (active)
same,IC50,NS3,5.41 µM (active)
same,EC50,[8],0.324 µM (active)
same,EC50,H4,96.8 µM (active)
same,EC50,Streptokinase A,13.4 µM (active)
CCCC(=O)N1CCN(c2ccc(NC(=O)c3ccc([N+](=O)[O-])o3)cc2Cl)CC1,EC50,[2],2.96 µM (active)
same,EC50,HEK293 [9],> 59.6 µM (inactive)
same,AC50,[10],8.17 µM (active)
same,AC50,[11],0.7 µM (active)
same,AC50,[12],36.6 µM (active)
same,AC50,[13],7.65 µM (active)
same,EC50,[7],2.36 µM (active)
same,CC50,HeLa,4.19 µM (active)
same,EC50,HEK293 [14],> 59.6 µM (inactive)
Nc1cc(-c2ccc(Br)cc2)nn1Cc1ccccc1,EC50,[15],> 112 µM (not active)
same,IC50,Galanin receptor type 3,3.55 µM (active)
same,EC50,[3],7.99 µM (active)
same,EC50,[16],> 112 µM (not active)
same,EC50,[4],18 µM (active)
same,EC50,cells,> 29.9 µM (inactive)
same,EC50,[17],13.1 µM (not active)
same,EC50,HEK293 [18],9.3 µM (active)
same,EC50,[19],11.6 µM (not active)
same,EC50,H4,13.1 µM (active)
COc1cccc(/C=N/Nc2[nH]cnc3c4cc(C)ccc4nc2-3)c1OC,IC50,Insulin-degrading enzyme,0.571 µM (active)
same,IC50,Genome polyprotein,> 49.8 µM (not active)
same,IC50,[20],24.9 µM (not active)
same,IC50,[21],3.73 µM (active)
same,IC50,[22],> 66.6 µM (inactive)
same,IC50,[23],2.38 µM (active)
